# Measured values published in paper PMC7031741 (Journal of Ginseng Research, 2018).
# Biological target: ABCB1 (P-glycoprotein, P-gp) (Homo sapiens, UniProt P08183)
# Assay: Pgp-Glo ATPase assay: inhibition of verapamil-stimulated ABCB1 ATPase
# Format: biochemical
# Sequence of ABCB1 (P-glycoprotein, P-gp) (P08183 whole entry): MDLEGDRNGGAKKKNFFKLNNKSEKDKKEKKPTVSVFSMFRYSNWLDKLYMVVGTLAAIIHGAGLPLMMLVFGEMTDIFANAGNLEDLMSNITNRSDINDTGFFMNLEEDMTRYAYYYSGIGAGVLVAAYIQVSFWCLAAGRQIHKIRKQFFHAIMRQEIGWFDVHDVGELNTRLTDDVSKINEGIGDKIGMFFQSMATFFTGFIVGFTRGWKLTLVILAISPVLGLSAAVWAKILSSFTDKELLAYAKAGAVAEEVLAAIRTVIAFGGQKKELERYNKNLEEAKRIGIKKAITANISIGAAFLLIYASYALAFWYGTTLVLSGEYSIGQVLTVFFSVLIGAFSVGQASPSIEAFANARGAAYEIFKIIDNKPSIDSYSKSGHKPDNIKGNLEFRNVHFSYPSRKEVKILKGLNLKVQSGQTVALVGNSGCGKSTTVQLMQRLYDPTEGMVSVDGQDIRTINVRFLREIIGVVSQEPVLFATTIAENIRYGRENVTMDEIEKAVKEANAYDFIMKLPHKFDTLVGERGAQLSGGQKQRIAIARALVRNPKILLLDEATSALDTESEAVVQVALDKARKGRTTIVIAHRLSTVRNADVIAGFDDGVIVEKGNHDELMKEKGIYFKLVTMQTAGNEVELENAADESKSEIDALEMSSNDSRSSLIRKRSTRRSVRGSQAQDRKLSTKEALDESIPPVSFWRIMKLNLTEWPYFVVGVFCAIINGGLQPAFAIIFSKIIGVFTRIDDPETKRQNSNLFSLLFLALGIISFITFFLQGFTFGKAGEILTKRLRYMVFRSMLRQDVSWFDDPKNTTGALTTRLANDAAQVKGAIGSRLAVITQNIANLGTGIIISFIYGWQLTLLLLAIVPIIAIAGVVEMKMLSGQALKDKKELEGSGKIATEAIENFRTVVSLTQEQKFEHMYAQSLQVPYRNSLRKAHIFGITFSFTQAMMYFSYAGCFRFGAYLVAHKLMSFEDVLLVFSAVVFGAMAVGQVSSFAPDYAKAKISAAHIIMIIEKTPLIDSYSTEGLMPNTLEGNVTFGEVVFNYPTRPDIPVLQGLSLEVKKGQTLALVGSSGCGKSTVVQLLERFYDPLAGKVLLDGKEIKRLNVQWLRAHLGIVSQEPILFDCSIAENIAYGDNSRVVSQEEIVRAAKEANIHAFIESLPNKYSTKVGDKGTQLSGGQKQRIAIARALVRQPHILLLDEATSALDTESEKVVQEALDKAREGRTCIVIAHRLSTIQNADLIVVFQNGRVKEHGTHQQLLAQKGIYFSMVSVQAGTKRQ
smiles,measurement,value
"CC(C)=CC/C=C(\C)[C@H]1CC[C@]2(C)[C@@H]1[C@H](O)C[C@@H]1[C@@]3(C)CC[C@H](O[C@@H]4O[C@H](CO)[C@@H](O)[C@H](O)[C@H]4O[C@@H]4O[C@H](CO)[C@@H](O)[C@H](O)[C@H]4O)C(C)(C)[C@@H]3CC[C@]12C [Rg5, Ginsenoside Rg5]",IC50,9.16 µM
